The target in this assay is T1, Neutrophil elastase (Homo sapiens, UniProt P08246).
T1 sequence (P08246 whole entry): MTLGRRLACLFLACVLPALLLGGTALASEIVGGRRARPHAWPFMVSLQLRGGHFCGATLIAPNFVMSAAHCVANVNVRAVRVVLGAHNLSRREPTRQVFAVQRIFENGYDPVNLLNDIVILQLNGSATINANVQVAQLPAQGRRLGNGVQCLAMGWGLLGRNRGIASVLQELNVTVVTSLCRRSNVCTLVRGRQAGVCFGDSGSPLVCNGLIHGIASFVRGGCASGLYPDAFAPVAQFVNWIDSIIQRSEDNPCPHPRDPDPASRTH
As to the kind of experiment: Steady state inhibition constant for Human Leukocyte Elastase inhibition. The settings on record: for kon: read-out: kon (M-1-s-1).

A word on the koff: it is the rate constant with which the complex falls apart. A low value points to a long-lived complex. A word on the kon: it is the rate constant with which the complex forms. For `COC(=O)CSc1nc2sc(C)c(C)c2c(=O)o1` [(5,6-Dimethyl-4-oxo-4H-thieno[2,3-d][1,3]oxazin-2-ylsulfanyl)-acetic acid methyl ester], the koff was found to be 0.000163 s⁻¹ and the kon turned out to be 685 M⁻¹ s⁻¹.
Regarding `Cc1sc2nc(NC(C)C)oc(=O)c2c1C` [2-Isopropylamino-5,6-dimethyl-thieno[2,3-d][1,3]oxazin-4-one], the koff was found to be 8.5e-05 s⁻¹ and the on-rate constant (kon) turned out to be 1130 M⁻¹ s⁻¹.
Taken in the same sequence, the figures for `CSc1nc2sc3c(c2c(=O)o1)CCCC3` [2-Methylsulfanyl-5,6,7,8-tetrahydro-benzo[4,5]thieno[2,3-d][1,3]oxazin-4-one] were 0.00156 s⁻¹ and 272000 M⁻¹ s⁻¹.

Values taken from BindingDB's records for doi:10.1021/jm9708341 (University of Leipzig, 1998).
